{
  "source": "patent US5935597A",
  "about": "“Drug delivery devices and methods for treatment of viral and microbial infections and wasting syndromes” (Cryopreservation Technologies CC, priority 1995, dated 1999)",
  "key": {"[1]": {"experiment": "Physicochemical properties of DMF", "conditions": "gel patches"}, "HIV [2]": {"system": "HIV", "conditions": "certain cultured cell lines; cited from earlier work"}, "HIV [3]": {"system": "HIV", "experiment": "Example 8 pilot study: clinical condition and Karnofsky performance scale in HIV infected patients", "type": "in vivo, human", "method": "(§1) A pilot study was conducted to evaluate the efficacy of transdermal DMF in the treatment of patients infected with HIV. Informed consent was obtained from each patient. Seropositive status was verified by Western blot using a commercial kit for detecting antibodies to p24 (Abbott Diagnostics) and the presence of HIV-1 was documented by quantitative PCR using a commercial kit (Roche Amplicor).\n(§2) Dermal patches 9 cm in diameter were used within 12 hours of manufacture. […] The patches were visually inspected to verify the absence of leakage and were weighed on an analytical balance to verify less than 10% deviation from a total mass of 8.153 g. The patches were applied to the skin of the forearm and secured with Elastoplast™ bandages. Either one or two patches were used for the initial dose, as determined from the predicted skin transfer rate of 9.4 mg/cm^2 /hr and the patient's body weight.\n(§3) A staged dose of DMF was used, with two-hourly blood and urine sampling to determine peak plasma DMF levels. […] Initial evaluation included daily determination of:\nb) clinical checklist and Karnofsky score;\n(See Karnofsky et al., […], Cancer 1:634-656). […] Additional anti-microbial therapy for secondary infections was rarely needed. […] Clinical improvement correlated well with disease status as assessed by viral load and CD4+ T cell count."}, "[4]": {"system": "virus particles, e.g. the capsid; reverse transcriptase; protease", "experiment": "In vitro tests of DMF on virus particles"}, "CD4+ T cell": {"system": "CD4+ T cell", "experiment": "Example 8 pilot study: CD4+ T cell count (Coulter analysis)", "type": "in vivo, human", "method": "as §1, §2, §3\nc) Coulter analysis of CD4+ and CD8+ counts and CD4/CD8 ratio;"}, "[5]": {"experiment": "Absorption of liquid DMF through human skin", "type": "in vivo", "conditions": "two patches of diameter 9 cm, 127 cm^2 skin", "method": "For transdermal administration of a polar compound, the rate of absorption is determined by the skin of the subject. […] Accordingly, the desired rate of absorption may be achieved by controlling the surface area of the skin exposed to the drug, as by determining the area of each patch and the number of patches applied to the skin."}, "[6]": {"experiment": "Example 7: plasma/blood DMF level in HIV-1 patients treated with DMF dermal patches", "type": "in vivo", "conditions": "human, blood, topical or ocular, 14000 mg", "method": "Two skin patches were applied to different parts of the patient's body, for example to the forearm. […] The gel served to prevent leakage of liquid DMF from the patches. […] For a patient weighing about 60 kg, an amount of about 14 g over a period of 12 hours is required to produce a level of 100 ppm. Based on studies by Marz and Nohova the surface area required to absorb this amount in about 127,2 cm^2. […] Absorption capability varies from patient to patient depending on factors such as skin-type and skin thickness.\n(§4) Each patch was applied for a period of 12 hours, either once per week over a period of 12 weeks, or twice per week over a period of 6 weeks.\nDaily full clinical and psychological evaluations were also conducted."}, "[7]": {"conditions": "cited from earlier work"}, "human cancer xenografts": {"system": "human cancer xenografts", "conditions": "intraperitoneal injection, nude mice; cited from earlier work"}, "CD4 T-cell": {"system": "CD4 T-cell", "experiment": "Example 7: CD4 T-cell counts in blood of HIV-1 patients", "type": "in vivo, human", "conditions": "certain patients; increase from 350; transdermal DMF", "method": "as §4\n(§5) Blood tests in certain patients indicated an increase in CD4 T-cell counts from 350 to 1000, and a rapid reduction of PCR (Polymerase chain reaction) (viral load) of 120,000 to 500/ml within three weeks with as little as three treatments. […] The PCR test conducted was the Roche amplicor HIV monitor. A viral load of <500/ml plasma is considered to be undetectable.\n(§6) A daily virological serology workout to establish total body virus count and to monitor improvements in the immune status of the patient (CD4+ T-helper cells) and prognostic factors were also conducted. The serology workout was based on p24 antigen and quantitative PCR or, optionally, by other methods. A weekly determination of CD4 counts and […] was also conducted specifically to monitor improvements in the patient's immune status and prognosis. All clinical and laboratory data were fed into a centralized data system to facilitate rapid response to any detrimental change so as to curtail treatment to maximize clinical effect and minimize potential side effects."}, "HIV-1": {"system": "HIV-1", "experiment": "Example 7: HIV-1 viral load by quantitative PCR (Roche amplicor HIV monitor)", "type": "in vivo, human", "conditions": "certain patients; reduction from 120,000; within three weeks, as little as three treatments", "method": "as §4, §5, §6"}, "transformed cells": {"system": "transformed cells", "conditions": "in vitro, certain transformed cells; cited from earlier work"}, "[8]": {"conditions": "water, alcohols and some hydrocarbons; cited from earlier work"}, "[9]": {"system": "Human Herpes Virus 6 (HHV-6)", "conditions": "certain cultured cell lines; cited from earlier work"}, "[10]": {"experiment": "Example 8 pilot study: body weight", "type": "in vivo, human", "method": "as §1, §2, §3\na) vital signs and body weight;"}, "malignant cells": {"system": "malignant cells", "conditions": "cells treated in vitro, then inoculated into nude mice; cited from earlier work"}},
  "data": [
    {"compound": "CN(C)C=O", "note": "[DMF, N,N'-dimethylformamide]", "values": [
      {"measurement": "evaporation", "setting": "[1]", "result": "evaporates rapidly"},
      {"measurement": "in vitro replication of HIV", "setting": "HIV [2]", "result": "inhibit in vitro replication of HIV"},
      {"measurement": "need for additional anti-microbial therapy for secondary infections", "setting": "HIV [3]; 8 patients", "result": "rarely needed"},
      {"measurement": "neurological symptoms and Herpes viral infections", "setting": "HIV [3]; 8 patients", "result": "Improvement in neurological symptoms and Herpes viral infections was remarkable"},
      {"measurement": "general condition, Karnofsky performance scale", "setting": "HIV [3]; 8 patients, before and after treatment (FIG. 4)", "result": "every patient showed improved general condition"},
      {"measurement": "clinical outcome", "setting": "HIV [3]; Patient 1, after 7 weeks", "result": "appetite had improved, the respiratory difficulties had resolved, the patient appeared clinically well and started exercising again"},
      {"measurement": "clinical outcome", "setting": "HIV [3]; Patient 2, after 9 weeks", "result": "herpetic sores had resolved, the limb pains had disappeared and the patient appeared clinically well"},
      {"measurement": "clinical outcome", "setting": "HIV [3]; Patient 3, after 10 weeks", "result": "the patient was clinically well and no longer complained of pain in the limbs"},
      {"measurement": "clinical outcome", "setting": "HIV [3]; Patient 4, after 18 weeks", "result": "The patient appeared clinically well and had no active medical complaints"},
      {"measurement": "clinical outcome", "setting": "HIV [3]; Patient 5, after 19 weeks", "result": "The secondary infections had resolved and the patient appeared clinically well"},
      {"measurement": "clinical outcome", "setting": "HIV [3]; Patient 6, after 5 weeks", "result": "The patient was clinically well"},
      {"measurement": "clinical outcome", "setting": "HIV [3]; Patient 7, after 9 treatments", "result": "The patient felt well and had returned to full-time employment"},
      {"measurement": "clinical outcome", "setting": "HIV [3]; Patient 8, after 8 weeks", "result": "the Herpes lesions had entirely resolved"},
      {"measurement": "clinical improvement", "setting": "HIV [3]; after 2-3 weeks of treatment", "result": "Virtually all patients showed clinical improvement"},
      {"measurement": "general fatigue and appetite", "setting": "HIV [3]; within the first 14 days of DMF treatment", "result": "marked improvement in general fatigue and in appetite"},
      {"measurement": "effect on virus particles", "setting": "[4]; in vitro", "result": "it appears that the solvent properties of DMF dissolve the virus particles, e.g. the capsid"},
      {"measurement": "apparent mode of action", "setting": "[4]; it appears as if", "result": "acts as at least one of a reverse transcriptase inhibitor and a protease inhibitor"},
      {"measurement": "CD4+ T cell count", "setting": "CD4+ T cell; Patient 1, after 7 weeks, from 39", "result": 138, "unit": "cells/μl"},
      {"measurement": "CD4+ T cell count", "setting": "CD4+ T cell; Patient 2, after 9 weeks, from 460", "result": 720, "unit": "cells/μl"},
      {"measurement": "CD4+ T cell count", "setting": "CD4+ T cell; Patient 3, after 9 weeks, from 140", "result": 640, "unit": "cells/μl"},
      {"measurement": "CD4+ T cell count", "setting": "CD4+ T cell; Patient 4, after 18 weeks, from 249", "result": 450, "unit": "cells/μl"},
      {"measurement": "CD4+ cell count", "setting": "CD4+ T cell; Patient 5, after 19 weeks, from 260", "result": 450, "unit": "cells/μl"},
      {"measurement": "CD4+ T cell count", "setting": "CD4+ T cell; Patient 6, after 5 weeks, from 354", "result": 396, "unit": "cells/μl"},
      {"measurement": "CD4+ T cell count", "setting": "CD4+ T cell; Patient 7, after 9 treatments, initial 29", "result": 35, "unit": "cells/μl"},
      {"measurement": "CD4+ T cell count", "setting": "CD4+ T cell; Patient 7, after the first treatment, initial 29", "result": 14, "unit": "cells/μl"},
      {"measurement": "CD4+ T cell count", "setting": "CD4+ T cell; Patient 8, after 8 weeks, from 200", "result": 240, "unit": "cells/μl"},
      {"measurement": "increase in CD4+ T cell counts", "setting": "CD4+ T cell; after 42 days, Gompertz curve fit, seven out of eight patients", "result": 73.4, "unit": "%"},
      {"measurement": "absorption rate", "setting": "[5]", "result": "about 1.2 g of DMF per hour"},
      {"measurement": "concentration at 12 h", "setting": "[6]", "result": 100, "unit": "µg/mL"},
      {"measurement": "acute toxicity", "setting": "[7]; dermal, oral and inhalation", "result": "low acute dermal, oral and inhalation toxicity"},
      {"measurement": "hepatic toxicity", "setting": "[7]; in vivo", "result": "reversible hepatic damage"},
      {"measurement": "mutagenicity and carcinogenicity", "setting": "[7]; in vivo", "result": "not thought to be a mutagen or a carcinogen"},
      {"measurement": "skin and eye irritation", "setting": "[7]; in vivo", "result": "mild to moderate skin and eye irritant"},
      {"measurement": "skin sensitization", "setting": "[7]; in vivo", "result": "no indication of skin sensitizing properties"},
      {"measurement": "teratogenicity", "setting": "[7]; in vivo", "result": "teratogenic"},
      {"measurement": "growth of human cancer xenografts", "setting": "human cancer xenografts", "result": "slow the growth of certain human cancer xenografts"},
      {"measurement": "CD4 T-cell count", "setting": "CD4 T-cell", "result": 1000},
      {"measurement": "PCR viral load", "setting": "HIV-1", "result": 500, "unit": "mL⁻¹"},
      {"measurement": "differentiation", "setting": "transformed cells", "result": "in vitro differentiating agent"},
      {"measurement": "miscibility", "setting": "[8]", "result": "freely miscible with water, alcohols and some hydrocarbons"},
      {"measurement": "in vitro replication of HHV-6", "setting": "[9]", "result": "inhibit in vitro replication of HIV and Human Herpes Virus 6 (HHV-6)"},
      {"measurement": "body weight", "setting": "[10]; Patient 1, after 7 weeks, from 74.2", "result": 100, "unit": "kg"},
      {"measurement": "body weight", "setting": "[10]; Patient 2, after 9 weeks, from 58.4", "result": 63.0, "unit": "kg"},
      {"measurement": "body weight", "setting": "[10]; Patient 3, after 10 weeks, from 81.9", "result": 96.0, "unit": "kg"},
      {"measurement": "body weight", "setting": "[10]; Patient 4, after 18 weeks, from 81.5", "result": 90.4, "unit": "kg"},
      {"measurement": "body weight", "setting": "[10]; Patient 5, after 19 weeks, from 75.4", "result": 84.6, "unit": "kg"},
      {"measurement": "body weight", "setting": "[10]; Patient 6, after 5 weeks, from 56.0", "result": 58.0, "unit": "kg"},
      {"measurement": "body weight", "setting": "[10]; Patient 7, after 9 treatments, from 46.5", "result": 49.0, "unit": "kg"},
      {"measurement": "body weight", "setting": "[10]; Patient 8, after 8 weeks, from 48.1", "result": 52.2, "unit": "kg"},
      {"measurement": "weight gain", "setting": "[10]; all patients", "result": "All the patients gained weight"},
      {"measurement": "tumorigenicity", "setting": "malignant cells", "result": "reduce their tumorigenicity"}
    ]}
  ]
}
